“And” between values parts separate entries of the source, which are not always exact repeats. Equal values may be shown once. Read-outs that look alike come from different tables or passages of the source.
System: morphine self-administration
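Further: rats trained to self-administer intravenous morphine at 500 µg/kg per infusion, first under FR1 then FR3.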

Q: Which “D10 BP (PR1)” value (BP, Day 10, progressive ratio PR1, CP612 6 hours prior, group mean, n=7) does the source give for N[C@H](CNC(=O)C1(c2ccc(Cl)cc2)CCCC1)c1ccc(C(=O)Nc2ccncc2)cc1 [CP612] here?
A: 25.57

Q: What about the “D12 BP (PR2_WD)” value (BP, Day 12, progressive ratio PR2 withdrawal, CP612 6 hours prior, group mean, n=6) of the same compound?
A: 21.67

Q: And the “D13 BP (PR3_Nal)” value (BP, Day 13, progressive ratio PR3_Nal, CP612 6 hours prior, group mean, n=7)?
A: 17.57

Q: And the “D12 BP (PR2_WD)” value (BP, PR2_WD, day 12, individual rats)?
A: 40 and 15 and 20

Q: And the “Effect on morphine intake or responding (infusions and breaking point)” value (CP612 30 mg/kg i.p. 6 hours prior, progressive ratio tests 1-3)?
A: did not modify morphine intake or responding

Q: And the “D1 AH (FR1)” value (active hole responses, Day 1, fixed ratio 1, mean of CP612 group, n=7)?
A: 16.14

Q: What about the “D2 AH (FR1)” value (active hole responses, Day 2, fixed ratio 1, mean of CP612 group, n=7) of the same compound?
A: 13.86

Q: What about the “D3 AH (FR1)” value (active hole responses, Day 3, fixed ratio 1, mean of CP612 group, n=7) of the same compound?
A: 16.29

Q: And the “D4 AH (FR1)” value (active hole responses, Day 4, fixed ratio 1, mean of CP612 group, n=7)?
A: 14.57

Q: What about the “D4 AH (FR3)” value (active hole responses, Day 4, fixed ratio 3, mean of CP612 group, n=7) of the same compound?
A: 14.57

Q: And the “D5 AH (FR3)” value (active hole responses, Day 5, fixed ratio 3, mean of CP612 group, n=7)?
A: 25.86

Q: What about the “D6 AH (FR3)” value (active hole responses, Day 6, fixed ratio 3, mean of CP612 group, n=7) of the same compound?
A: 25.71

Q: What about the “D7 AH (FR3)” value (active hole responses, Day 7, fixed ratio 3, mean of CP612 group, n=7) of the same compound?
A: 27.86

Q: And the “D8 AH (FR3)” value (active hole responses, Day 8, fixed ratio 3, mean of CP612 group, n=7)?
A: 35.00

Q: What about the “D9 AH (FR3)” value (active hole responses, Day 9, fixed ratio 3, mean of CP612 group, n=7) of the same compound?
A: 37.86

Q: And the “D10 AH (PR1)” value (active hole responses, Day 10, PR1, CP612 6 hours prior, group mean, n=7)?
A: 119.00

Q: What about the “D12 AH (PR2_WD)” value (active hole responses, Day 12, PR2 withdrawal, CP612 6 hours prior, group mean, n=6) of the same compound?
A: 99.33

Q: What about the “D13 AH (PR3_Nal)” value (active hole responses, Day 13, PR3_Nal, CP612 6 hours prior, group mean, n=7) of the same compound?
A: 78.29

Q: What about the “AH (avg all)” value (active hole responses, average of all days D1-D9, mean of CP612 group, n=7) of the same compound?
A: 23.68

Q: And the “AH (avg last 3 days)” value (active hole responses, average of last 3 days, mean of CP612 group, n=7)?
A: 33.57

Q: And the “D1 IH (FR1)” value (inactive hole responses, Day 1, fixed ratio 1, mean of CP612 group, n=7)?
A: 7.43

Q: And the “D2 IH (FR1)” value (inactive hole responses, Day 2, fixed ratio 1, mean of CP612 group, n=7)?
A: 12.14

Q: And the “D3 IH (FR1)” value (inactive hole responses, Day 3, fixed ratio 1, mean of CP612 group, n=7)?
A: 12.43

Q: What about the “D4 IH (FR1)” value (inactive hole responses, Day 4, fixed ratio 1, mean of CP612 group, n=7) of the same compound?
A: 8.71

Q: What about the “D4 IH (FR3)” value (inactive hole responses, Day 4, fixed ratio 3, mean of CP612 group, n=7) of the same compound?
A: 8.71

Q: What about the “D5 IH (FR3)” value (inactive hole responses, Day 5, fixed ratio 3, mean of CP612 group, n=7) of the same compound?
A: 13.86

Q: What about the “D6 IH (FR3)” value (inactive hole responses, Day 6, fixed ratio 3, mean of CP612 group, n=7) of the same compound?
A: 7.43

Q: What about the “D7 IH (FR3)” value (inactive hole responses, Day 7, fixed ratio 3, mean of CP612 group, n=7) of the same compound?
A: 4.57

Q: What about the “D8 IH (FR3)” value (inactive hole responses, Day 8, fixed ratio 3, mean of CP612 group, n=7) of the same compound?
A: 6.43

Q: And the “D9 IH (FR3)” value (inactive hole responses, Day 9, fixed ratio 3, mean of CP612 group, n=7)?
A: 5.57

Q: What about the “D10 IH (PR1)” value (inactive hole responses, Day 10, PR1, CP612 6 hours prior, group mean, n=7) of the same compound?
A: 13.00

Q: What about the “D12 IH (PR2_WD)” value (inactive hole responses, Day 12, PR2 withdrawal, CP612 6 hours prior, group mean, n=6) of the same compound?
A: 10.67

Q: And the “D13 IH (PR3_Nal)” value (inactive hole responses, Day 13, PR3_Nal, CP612 6 hours prior, group mean, n=7)?
A: 8.86

Q: And the “D9 IH (avg all)” value (inactive hole responses, average of all days D1-D9, mean of CP612 group, n=7)?
A: 8.73

Q: And the “D9 IH (avg last 3 days)” value (inactive hole responses, average of last 3 days, mean of CP612 group, n=7)?
A: 5.52

Q: What about the “D10 AH (PR1) Log” value (log of active hole responses, Day 10, PR1, CP612 6 hours prior, group mean, n=7) of the same compound?
A: 2.04

Q: And the “D12 AH (PR2_WD) Log” value (log of active hole responses, Day 12, PR2 withdrawal, CP612 6 hours prior, group mean, n=6)?
A: 1.94

Q: And the “D13 AH (PR3_Nal) Log” value (log of active hole responses, Day 13, PR3_Nal, CP612 6 hours prior, group mean, n=7)?
A: 1.85

Q: What about the “D10 IH (PR1) Log” value (log of inactive hole responses, Day 10, PR1, CP612 6 hours prior, group mean, n=7) of the same compound?
A: 1.03

Q: What about the “D12 IH (PR2_WD) Log” value (log of inactive hole responses, Day 12, PR2 withdrawal, CP612 6 hours prior, group mean, n=6) of the same compound?
A: 0.89

Q: And the “D13 IH (PR3_Nal) Log” value (log of inactive hole responses, Day 13, PR3_Nal, CP612 6 hours prior, group mean, n=7)?
A: 0.88

Q: What about the “D10 Inf (PR1) Log” value (log of infusions, Day 10, PR1, CP612 6 hours prior, group mean, n=7) of the same compound?
A: 0.94

Q: What about the “D12 Inf (PR2_WD) Log” value (log of infusions, Day 12, PR2 withdrawal, CP612 6 hours prior, group mean, n=6) of the same compound?
A: 0.91

Q: What about the “D13 Inf (PR3_Nal) Log” value (log of infusions, Day 13, PR3_Nal, CP612 6 hours prior, group mean, n=7) of the same compound?
A: 0.85

Q: And the “D12 Inf (PR2_WD) Log” value (log of infusions, PR2_WD, day 12, individual rats)?
A: 1.04 and 0.85 and 0.90

Q: And the “D10 Latency (PR1) Log” value (log of latency, Day 10, PR1, CP612 6 hours prior, group mean, n=7)?
A: -0.40

Q: What about the “D12 Latency (PR2_WD) Log” value (log of latency, Day 12, PR2 withdrawal, CP612 6 hours prior, group mean, n=6) of the same compound?
A: -0.00262

Q: What about the “D13 Latency (PR3_Nal) Log” value (log of latency, Day 13, PR3_Nal, CP612 6 hours prior, group mean, n=7) of the same compound?
A: -0.48

Q: And the “D2 Inf (FR1)” value (morphine infusions, Day 2, fixed ratio 1, mean of CP612 group, n=7)?
A: 10.71

Q: And the “D3 Inf (FR1)” value (morphine infusions, Day 3, fixed ratio 1, mean of CP612 group, n=7)?
A: 10.86

Q: What about the “D4 Inf (FR1)” value (morphine infusions, Day 4, fixed ratio 1, mean of CP612 group, n=7) of the same compound?
A: 11.00

Q: And the “D4 Inf (FR3)” value (morphine infusions, Day 4, fixed ratio 3, mean of CP612 group, n=7)?
A: 11.00
